Data from the SangsterLogP compilation.

Experiments:
[1] = method code SF-AS, from DOI: 10.1021/jm00291a017, PMID: 5140011
[2] = method code SF-AS, from DOI: 10.1002/ps.2780370107; details: pH 0.0
[3] = method code SF-HPLC, from DOI: 10.1002/jps.2600831027, PMID: 7884677; details: pH 2.0
[4] = not given; remark: listed apart in the source
[5] = method code SF-AS, from DOI: 10.1093/chemse/13.4.619; details: pH 7.2
[6] = not given; remark: listed apart in the source
[7] = method code SF-AS, from PMID: 8197227; details: pH 7.4
[8] = method code SF-HPLC, from DOI: 10.1016/0378-5173(87)90096-2; details: pH 8.0
[9] = method code SF-AS, from DOI: 10.1021/je700381u; details: pH 0.0
[10] = method code SF-AS, from M. Kuchar, J. Tomkova, V. Rejholec, & O. Roubinek. (1992). Some problems of the chromatographic evaluation of lipophicity. In Kuchar, M. (Ed.) QSAR in Design of Bioactive Compounds (pp. 65-81). Prous …; details: pH 3.4
[11] = method code SF-AS, from DOI: 10.1111/j.1476-5381.1975.tb07619.x, PMID: 1182339; details: pH 10.0
[12] = not given; remark: listed apart in the source
[13] = not given; remark: listed apart in the source
[14] = from Pratesi, P.; Villa, L.; Ferri, V.; DeMicheli, C.; Grana, E.; Grieco, C.; Silipo, C.; Vittoria, A. (1979). On the additive-constitutive properties of substituent hydrophobic parameters in a set of …
[15] = method code SF-AS, from DOI: 10.1002/jps.2600710122
[16] = not given; remark: listed apart in the source
[17] = not given; remark: listed apart in the source
[18] = method code SF-AS, from DOI: 10.1021/jf60177a051
[19] = method code SF-C, from DOI: 10.1038/194178b0
[20] = method code SF, from DOI: 10.1016/s0968-0896(00)00025-0, PMID: 10882003
[21] = method code SF-AS, from DOI: 10.1021/bi00730a008, PMID: 4688860
[22] = method code SF-AS, from DOI: 10.1080/00021369.1974.10861343; details: pH 3.0
[23] = method code SF-AS, from DOI: 10.1021/jm00234a001, PMID: 1003419

Molecule `S=C1CCCCCCCN1` has a logP [1] of 1.44.

With `CCOP(=O)(O)Cc1ccccc1` the logD [2] was 0.81.

`Nc1ccc(F)c(Cl)c1` showed a logP of 1.95.

With `O=C(O)Cc1ccc(C(=O)O)cc1` the logD [3] was 1.24.

Work on `O=C(O)c1cccc(Oc2ccccc2)c1` yielded a logP [4] of 3.6.

`CCOP(=O)(OCC)O/C(=C/Cl)c1ccc(Cl)cc1Cl` showed a logP of 3.84.

For `O=C(c1ccccc1)c1ccncc1`, the logD [5] was 1.9.

`COc1cccc(N)c1` showed a logP [6] of 1.11.

Work on `O=C(NNc1nccs1)c1ccc2c(c1)OCO2` yielded a logD [7] of 1.06.

In the case of `NC(=O)Cc1cccnc1`, the logD [8] was -0.59.

Work on `O=C(O)c1cc(F)ccc1Br` yielded a logD [9] of 2.21.

In the case of `S=C1CCCCCN1`, the logP [1] was 0.75.

In the case of `CC(C)Cc1ccc(CC(=O)O)cc1`, the logD [10] was 3.35.

`COc1ccc(NC(=O)NC(=N)N)cc1` gave a logD [11] of 0.56.

Molecule `CCCCCCOc1ccc(CC(=O)O)cc1` has a logD [10] of 3.96.

`O=C(O)c1cccc(F)c1Cl` showed a logD [9] of 1.74.

In the case of `O=C(O)c1ccc(F)c(Br)c1`, the logD [9] was 3.56.

`O=C(O)c1ccc(CO)cc1` gave a logD [3] of 0.92.

With `N=C(N)NC(=O)Nc1cccc([N+](=O)[O-])c1` the logD [11] was 1.28.

For `O=C(O)c1ccccc1O`, the logP [12] was 1.75.

For `CCOP(=O)(O)Cc1ccc(F)cc1`, the logD [2] was 1.25.

Molecule `O=C(O)CCCCCCCCCCCOC(=O)Oc1ccccc1` has a logP [13] of 4.26.

`NC(=O)CCCc1ccccn1` showed a logD [8] of 0.06.

For `Cc1cc(C)cc(O)c1`, the logP was 2.54.

With `O=C(O)CCCCCCCCCCCCCCCOC(=O)Oc1ccccc1` the logP [13] was 4.67.

With `NC(=O)Cc1ccncc1` the logD [8] was -0.59.

In the case of `Oc1ccc(C2CCCCC2)cc1`, the logP [14] was 4.22.

`COc1ccc(C(O)C(=O)O)cc1` (stereo unspecified) gave a logD [10] of 0.63.

With `CCCC(=O)Nc1n[nH]c(NC(=O)CCC)n1` the logP [15] was 0.79.

`CCOP(=S)(OCC)Oc1cc(-c2ccccc2)on1` showed a logP [16] of 4.58.

`OCc1ccncc1` gave a logP [17] of -0.04.

Molecule `CC1=C(C(=O)Nc2ccccc2-c2ccccc2)SCCO1` has a logP [18] of 2.54.

`COP(=S)(OC)Oc1c(Cl)cc(C)cc1Cl` gave a logP [16] of 4.36.

In the case of `N#Cc1cccc(OCC(=O)O)c1`, the logP [19] was 1.2.

In the case of `O=[N+]([O-])c1ccc(Cc2ccncc2)cc1`, the logD [5] was 2.73.

Molecule `c1ccc2ccccc2c1` has a logP of 3.43.

In the case of `CCOC(=O)c1cc(C#N)c(=O)[nH]c1C(F)(F)F`, the logP [20] was 2.08.

In the case of `COc1cccc(NC=O)c1`, the logP [21] was 1.25.

`N#CCCOc1ccccc1` gave a logP [14] of 1.61.

With `c1ccc2c(c1)cc1ccc3cccc4ccc2c1c34` the logP [12] was 6.57.

Work on `OCc1ccc(F)cc1` yielded a logP [17] of 1.36.

Molecule `O=C(O)/C=C/Oc1ccccc1Cl` has a logD [22] of 2.69.

For `c1ccc2c(c1)ccc1c3ccccc3ccc21`, the logP [12] was 6.01.

Molecule `O=CNc1ccc([N+](=O)[O-])cc1` has a logP [21] of 1.43.

For `O=c1cccc[nH]1`, the logP [20] was -0.56.

Work on `O=C(O)c1cc(F)ccc1Cl` yielded a logD [9] of 2.39.

Work on `S=C1CCCCN1` yielded a logP [1] of 0.13.

Work on `Nc1ccccc1[N+](=O)[O-]` yielded a logP [6] of 1.62.

Molecule `CC1=C(C(=O)Nc2ccccc2)SCCO1` has a logP [18] of 1.73.

For `O=C(Nc1ccccc1)N(Cc1ccc(Cl)cc1)C1CCCC1`, the logP [16] was 4.7.

`OC[C@H]1O[C@@H](Oc2ccc(I)c(O[C@@H]3O[C@H](CO)[C@@H](O)[C@H](O)[C@H]3O)c2I)[C@H](O)[C@@H](O)[C@@H]1O` gave a logP [23] of -1.31.
